A short description of the data set: Solubility Test (solubility in water). It is filed as physicochemical. The text has this:
Solubility in water of inclusion compound of cyclodextrin with compound A or compound C is shown below. As the result, the inclusion compound is extremely more soluble in water than the starting compound.

≈ marks a conversion by molar mass, not a printed value.

A word on the solubility: it is the dissolved amount per volume that the medium holds. A lower solubility goes with a poorly soluble substance. Regarding `O=C(O)[C@@H]1CS[C@H](c2ccccc2O)N1C(=O)CCS` [Compound A, (2R,4R)-2-(2-hydroxyphenyl)-3-(3-mercaptopropanoyl)-4-thiazolidinecarboxylic acid], the solubility was 1600 µg/mL (≈ 5110 µM). Under `O=C(O)[C@@H]1CSC(c2ccccc2O)N1C(=O)CCSSCCC(=O)N1C(c2ccccc2O)SC[C@H]1C(=O)O` (stereo partly drawn) [Compound C, (4R,4'R)-3,3'-[3,3'-dithiobis(propanoyl)]bis[2-(2-hydroxyphenyl)-4-thiazolidinecarboxylic acid]] stands 100 µg/mL (≈ 160 µM).
